The text below walks through data of patent US10023551B2, “Glutathione-cleavable prodrug and methods of use thereof” (GEORGETOWN UNIVERSITY, priority 2015, dated 2018).

For series [1], the system named is MCF10A. The series can be described thus: Inhibition of cell proliferation in normal cells (MCF10A). The class given is cell-based. As to the method: (§1) To evaluate the toxicity of YK-5-252 in cells, the inhibition of cell proliferation was measured in normal cells (MCF10A) and TNBC cells (MDA-MB-231). […] This lack of selectivity can be attributed to the toxicity of YK-5-252.

The test system of series [2] is MDA-MB-231. Description: Inhibition of cell proliferation in TNBC cells (MDA-MB-231). Format: cell-based. As for the experimental part: as §1
A further series deals with tubulin polymerization. Description: Immunofluorescence staining of tubulin in TNBC cells. The class given is cell-based. To be noted: 50 nM, MDA-MB-231. As to the method: To determine the biological effect of YK-5-252, its mechanism of action was determined through immunofluorescence staining.
Series [3] is described as follows: Fluorescence properties and activation via GSH cleavage. The class given is physicochemical. The conditions noted are these: for NIR fluorescence emission: without GSH, excitation of 492 nm. As to the method:
FIG. 11 contains emission spectra of compounds described herein.
The fluorescence properties and ability to be activated via GSH cleavage of YK-5-252 were evaluated. DCM-NH2 has a NIR fluorescence emission at 650 nm with an excitation of 492 nm (FIG. 11, panel a). […] This can be due to the loss of electron donating ability of the amine group when attached to the linker. To ascertain the stability of YK-5-252 toward GSH, fluorescence was monitored in the presence of GSH.

Series [4] is described as follows: HPLC analysis of cleavage by glutathione. Format: physicochemical. The conditions noted are these: YK-5-252 200 μM; GSH 50 mM. As to the method:
FIG. 14 contains HPLC traces. Panel (a) is a trace of YK-5-252 (200 μM). Panel (b) is a trace of YK-5-252 (200 μM) and glutathione (GSH; 50 mM). Panel (c) is a trace of CA-4 (200 μM). Panel (d) is a trace of DCM (200 μM). […] After treatment with GSH (Panel (b)), the YK-5-252 peak at 10.5 minutes disappeared while two new peaks at 6.8 and 8.6 minutes appears which corresponds to the release of CA-4 and DCM-NH2, respectively (Panels (c) and (d)).
(§2) To further investigate the in vivo activation of YK-5-252, fluorescence-activated cell sorting (FACS) was used. Cells were treated with YK-5-252 for 48 hours. After treatment, FACS analysis was conducted to determine how much of the cell population has DCM-NH2 present. […] HPLC analysis confirmed that CA-4 release is concurrent with the release of DCM-NH2 in a traceless manner (FIG. 14, panels (a-d)). The difference in prodrug cleavage in cancer cells versus normal cells is due to the higher levels of GSH produced in cancer cells.

The subject of a further series is MDA-MB-231 versus MCF10A. The series can be described thus: Live cell imaging by confocal microscopy. The class given is cell-based. The conditions noted are these: 1 micromolar, 1 hour. As to the method: FIG. 12, panel (a) contains a confocal microscopy image of MDA-MB-231 cells (triple negative breast cancer cells) treated with YK-5-252 (1 micromolar) for 1 hour. Panel (b) contains a nuclear staining image of the cells with Hoesht dye. Panel (c) contains a merged image of panels (a) and (b). Panel (d) contains a confocal microscopy image of MCF10A (normal breast cells) treated with YK-5-252 (1 micromolar) for 1 hour. Panel (e) contains a nuclear stained image of the cells with Hoescht dye. Panel (f) contains a merged image of panels (d) and (e).
To test the ability of YK-5-252 to selectively release CA-4 in cancer cells, the presence of DCM was monitored through confocal microscopy. […] Also this experiment confirms the utility of YK-5-252 to monitor drug delivery and release in vivo.

Series [5] concerns MDA-MB-231. Description: FACS analysis of cell population containing released DCM-NH2, TNBC cells. The class given is cell-based. To be noted: treated 48 hours. As for the experimental part:
as §2

Series [6] relates to MCF10A. Description: FACS analysis of cell population containing released DCM-NH2, normal cells. The class given is cell-based. To be noted: treated 48 hours. As to the method:
as §2
(In general: Flow cytometry measures light scatter and fluorescence of single cells or particles in a stream.)

The test system of series [7] is MCF-7 and MCF-10A cell lines. The series can be described thus: In vitro cytotoxicity assay. Format: cell-based. To be noted: FIGS. 7 and 8. From the text: FIG. 7 contains plots for use in calculating the IC50 values for YK-5-252 and CA-4 in a MCF-7 cell line.
FIG. 8 contains plots for use in calculating the IC50 values for YK-5-252 and CA-4 in a MCF-10A cell line.
YK-5-252, the designed drug with linked disulfide bond described above, can be cleaved by intracellular glutathione (GSH). Cancer cells have a much higher GSH concentration than normal cells; therefore, this GSH-cleavable prodrug holds promising therapeutic efficacy. Near-infrared photons can deeply penetrate the skin and tissue with minimal damage. […] Due to its NIR fluorescent property, the compound also offers an excellent ability for tracking drug release in vivo.

Read-outs that look alike come from different tables or passages of the source.

In the case of `COc1ccc(/C=C\c2cc(OC)c(OC)c(OC)c2)cc1O` [CA-4, combretastatin A-4, reference compound], the GI50 in the series on MCF10A [1] (MCF10A normal breast cells, read-out: GI50 (Table 1)) was < 0.001 nM; in the series on MCF10A [1] (normal cells (MCF10A), read-out: GI50), < 0.001 nM; in the series with MDA-MB-231 [2] (MDA-MB-231 TNBC cells, after 72 hours of treatment, read-out: GI50 (Table 1)), 2.81 nM; with MDA-MB-231 [2] (TNBC cells (MDA-MB-231), read-out: GI50), 28.1 nM. In the series with tubulin polymerization (1 hour), the “disruption of tubulin polymerization” value is reported as “completely inhibited tubulin polymerization”.
Take `N#CC(C#N)=C1C=C(/C=C/c2ccc(N)cc2)Oc2ccccc21` [DCM-NH2, (E)-2-(2-(4-aminostyryl)-4H-chromen-4-ylidene)malononitrile]: in series [3], the NIR fluorescence emission was determined as 650 nm.
Turning to `COc1ccc(/C=C\c2cc(OC)c(OC)c(OC)c2)cc1OC(=O)OCCSSCCOC(=O)Nc1ccc(/C=C/C2=CC(=C(C#N)C#N)c3ccccc3O2)cc1` [YK-5-252], the GI50 in the series with MCF10A [1] (Homo sapiens, MCF-10A, MCF10A normal breast cells, read-out: GI50 (Table 1)) was 19.2 nM; in the series on MCF10A [1] (Homo sapiens, MCF-10A, normal cells (MCF10A), read-out: GI50), ~19.2 nM; in the series with MDA-MB-231 [2] (Homo sapiens, MDA-MB-231 TNBC cells, after 72 hours of treatment, read-out: GI50 (Table 1)), 40.3 nM; in the series with MDA-MB-231 [2] (Homo sapiens, TNBC cells (MDA-MB-231), read-out: GI50) it was 40.3 nM. Further, the “prodrug HPLC peak after treatment with GSH” value in [4] is recorded as “disappeared”. Further, the “fluorescence in TNBC cells versus normal breast cells” value with MDA-MB-231 versus MCF10A is reported as “higher quantities”. Also, the “cells containing DCM-NH2” value with MDA-MB-231 [5] is reported as 72%. In addition, the “cells containing DCM-NH2 (the fluorophore)” value with MCF10A [6] is on record as “about 5%”. Moreover, in series [3] (GSH 250 mM, pH 8, DMSO/PBS 50/50), the “fluorescence emission in the presence of GSH” value is 650 nm. In series [3], the NIR fluorescence emission entry is recorded as “no NIR emission”. Also, the “disruption of tubulin polymerization” value is listed as “did not cause disruption of tubulin polymerization” in the series on tubulin polymerization (1 hour) and “began to disrupt tubulin polymerization” with tubulin polymerization (6 hours). The “toxicity compared with parent drug” value in [7] is given as “much less toxic than its linked parent drug”.

As usually defined, the GI50 is the concentration giving 50% growth inhibition.
